According to patent publication US20230286955A1, “INHIBITORS OF THEM1” (Cornell University, priority 2022, published 2023):
Entries after “also recorded” stand apart in the source; their conditions may differ.

What was measured:
[1] = tested on: primary hepatocytes; assay: Oxygen consumption rates (OCR) in primary hepatocytes after palmitate; type: cell-based, mouse; details: compound 33 μM, palmitate-BSA 300 μM
Procedure: (§1) Primary hepatocytes cultured were prepared from 6- to 14-w old wild type, L-Them1Tg and Them1^−/− mice following anesthesia with ketamine and xylazine. Livers were perfused through the portal vein with 20 mL of liver perfusion medium (Thermo Fisher; Walham, MA) followed by 40 mL of liver digestion medium (Thermo Fisher; Walham, MA). Primary hepatocytes were gently disrupted from the liver capsule into hepatocyte wash medium (Thermo Fisher; Waltham, MA), filtered through a 70 μm cell strainer and then spun down at 30×g for 4 min at 4° C. Primary hepatocytes were cultured in William's Medium E (Thermo Fisher; Waltham, MA) supplemented with 1% penicillin/streptomycin and 10% fetal bovine serum. […] Cultured primary hepatocytes were maintained in a cell culture incubator at 37° C. with 5% CO2.
In primary hepatocytes, values of OCR were measured using a Seahorse XF24 extracellular flux analyzer (Agilent Technologies; Santa Clara, CA). […] OCR values were measured before and after the exposure of cells to palmitic acid conjugated with fatty acid-free BSA (300 μM) and normalized with total live cell count calculated through staining with NucRed Live probe (Thermo Fisher; Waltham, MA) measured at 715 nm emission and 623 nm excitation using a SpectraMax i3X plate reader (Molecular Devices; San Jose; CA).

[2] = tested on: primary hepatocytes; assay: Glucose production in primary hepatocytes; type: cell-based, mouse; details: compound 33 μM, pyruvate 2 mM, lactate 20 mM
Procedure: as §1
Rates of glucose production were determined as previously described with modifications (Kawano et al., 2014). Primary hepatocytes cultured from wild type, L-Them1Tg and Them1^−/' mice were serum-starved in Medium 199 (Thermo Fisher; Waltham, MA) for 16 h and then washed twice with PBS. […] Glucose concentrations in the media were measured enzymatically through a commercial kit according to the manufacturer's instructions using a NEO plate reader (BioTek, Winooski, VT).

[3] = in vitro; details: C57BL/6, mouse, primary brown adipocytes
Procedure: Cytotoxicities of compounds were determined using a CellTiter-Glo® Luminescent Cell Viability Assay, which measures concentrations of ATP liberated from viable cells (Promega; Madison, WI). […] Tamoxifen (50 μM) was used as a (+) control. CellTiter-Glo reagent (10 μL) was added to each well and incubated on an orbital shaker for 10 min at 22° C. to induce cell lysis and stabilize the luminescent signal. Relative luminescent units (RLU) were determined using a NEO plate reader (BioTek, Winooski, VT).

[4] = biological target: T1, Them1-ΔSTART (Homo sapiens, UniProt Q8WXI4); assay: Microscale thermophoresis binding, Them1-ΔSTART; details: for binding to Them1-ΔSTART: in words; for Kd: read-out: Kd, Thioesterase domains (Them1-ΔSTART ), MST, 100 nM labeled protein, 22° C.
T1 sequence (Q8WXI4 43-329 isoform Q8WXI4-2 limits assumed): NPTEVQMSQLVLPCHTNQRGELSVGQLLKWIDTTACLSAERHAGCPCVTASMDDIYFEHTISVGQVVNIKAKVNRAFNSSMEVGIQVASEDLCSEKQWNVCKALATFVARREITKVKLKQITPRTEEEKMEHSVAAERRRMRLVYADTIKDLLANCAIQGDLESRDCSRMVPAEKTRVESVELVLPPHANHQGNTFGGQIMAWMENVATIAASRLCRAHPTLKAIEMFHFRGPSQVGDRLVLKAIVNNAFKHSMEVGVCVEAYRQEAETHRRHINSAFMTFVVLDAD
Procedure: (§2) Data represent the mean (s.e.m.) of triplicate determinations. Where not visible, error bars are contained within the symbol sizes.
(§3) Reaction labeling recombinant full-length Them1, Them1l-ΔSTART, START or Acot12 with Monolith RED-Tris-NTA (NanoTemper Technologies; San Francisco, CA) were performed according to the manufacturer's instructions in buffer containing PBS plus 0.5% Tween-20 for 60 min at 22° C. with a molar dye: protein ratio=1:1. […] Working concentrations of compounds were prepared by diluting in microscale thermophoresis buffer. Reactions consisting of 100 nM of fluorescently labeled recombinant protein (full-length Them1, Them1-ΔSTART, START or Acot12) and compounds were loaded onto standard Monolith NT.115 Capillaries (NanoTemper Technologies; San Francisco, CA). Fluorescence was measured using a Monolith NT.115 instrument (NanoTemper Technologies; San Francisco, CA) at 22° C. with instrument parameters adjusted to 40% LED power and medium microscale thermophoresis power. Data were fitted by non-linear regression in GraphPad Prism (GraphPad Software; San Diego, CA).

[5] = biological target: full-length human Acot12 (Homo sapiens, UniProt Q8WYK0); assay: biochemical
Chain of full-length human Acot12 (Q8WYK0 whole entry): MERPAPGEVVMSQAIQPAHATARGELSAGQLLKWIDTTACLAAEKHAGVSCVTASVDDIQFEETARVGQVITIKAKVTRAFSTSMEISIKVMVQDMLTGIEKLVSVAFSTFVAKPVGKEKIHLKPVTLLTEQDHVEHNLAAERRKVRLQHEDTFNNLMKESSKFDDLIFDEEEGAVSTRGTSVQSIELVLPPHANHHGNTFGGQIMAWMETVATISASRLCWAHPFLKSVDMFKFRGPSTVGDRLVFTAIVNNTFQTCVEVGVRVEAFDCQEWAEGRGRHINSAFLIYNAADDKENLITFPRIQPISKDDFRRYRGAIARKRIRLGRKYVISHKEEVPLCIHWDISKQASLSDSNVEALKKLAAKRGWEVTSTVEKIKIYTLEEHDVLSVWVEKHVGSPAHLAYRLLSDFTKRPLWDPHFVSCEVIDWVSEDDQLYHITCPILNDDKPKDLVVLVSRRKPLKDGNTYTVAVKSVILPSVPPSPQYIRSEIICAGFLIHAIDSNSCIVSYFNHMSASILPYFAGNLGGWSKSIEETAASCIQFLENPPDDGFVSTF
Procedure: as §3

[6] = tested on: primary brown adipocytes cultured from A-Them1Tg mice; assay: Oxygen consumption rates (OCR) in primary brown adipocytes; type: cell-based, mouse
Procedure: Primary brown adipocytes from 4- to 6-w old wild type and A-Them1Tg mice were isolated, cultured and differentiated as described (Okada et al., 2016). In brief, BAT tissues harvested from 5- to 7-w old mice were pooled, minced and digested with collagenase B (Sigma-Aldrich; St. Louis, MO), and dispersed in growth medium [DMEM/F12 containing 4.5 g/L glucose, 0.1 mM pyruvate, 10 mM HEPES (Thermo Fisher; Waltham, MA) supplemented with 1% penicillin/streptomycin, 1% GlutaMAX (Thermo Fisher; Waltham, MA) and 20% fetal bovine serum]. […] Upon achieving confluence, pre-adipocytes were induced to differentiate for 8 d by culturing for the first 48 h in differentiation medium [DMEM/F12 containing 4.5 g/L glucose, 0.1 mM pyruvate, 10 mM HEPES (Thermo Fisher; Waltham, MA) supplemented with 1% penicillin/streptomycin, 1% GlutaMAX (Thermo Fisher; Waltham, MA), 10% fetal bovine serum, bovine insulin (5 μg/mL; Thermo Fisher; Waltham, MA) and rosiglitazone (1 μM; Sigma Aldrich; St. Louis, MO)] supplemented with dexamethasone (5 μM; Sigma Aldrich; St. Louis, MO) and 3-isobutyl-1-methylxanthine (0.5 mM; Sigma Aldrich; St. Louis, MO) and differentiation medium thereafter. On differentiation d 6 to 8, the adipocyte differentiation media was supplemented with L-(−)-norepinephrine (+) bitartrate (Calbiochem; EMD Millipore; Billerica, MA). Primary brown adipocytes were maintained in a cell culture incubator at 37° C. with 5% CO2.
In primary brown adipocytes on d 8 of differentiation, values of OCR were measured in the presence or absence of compounds using a Seahorse XF96 extracellular flux analyzer (Agilent Technologies; Santa Clara, CA). […] OCR values were measured before and after the exposure of cells to NE (1 μM) and normalized with total live cell count calculated through staining with NucRed Live probe (Thermo Fisher; Waltham, MA) measured at 715 nm emission and 623 nm excitation using a SpectraMax i3X plate reader (Molecular Devices; San Jose; CA).

[7] = biological target: T2, recombinant His-tagged human Them1 (Homo sapiens, UniProt Q8WXI4); assay: Assay for reversibility of Them1 inhibition (dialysis); type: biochemical; details: compounds […], C14-CoA 25 μM, 18 h dialysis
T2 construct: Reaction labeling recombinant full-length Them1; made in house; host or cells: E. coli Shuffle T7
T2 sequence (Q8WXI4 14-594 isoform Q8WXI4-2 limits assumed): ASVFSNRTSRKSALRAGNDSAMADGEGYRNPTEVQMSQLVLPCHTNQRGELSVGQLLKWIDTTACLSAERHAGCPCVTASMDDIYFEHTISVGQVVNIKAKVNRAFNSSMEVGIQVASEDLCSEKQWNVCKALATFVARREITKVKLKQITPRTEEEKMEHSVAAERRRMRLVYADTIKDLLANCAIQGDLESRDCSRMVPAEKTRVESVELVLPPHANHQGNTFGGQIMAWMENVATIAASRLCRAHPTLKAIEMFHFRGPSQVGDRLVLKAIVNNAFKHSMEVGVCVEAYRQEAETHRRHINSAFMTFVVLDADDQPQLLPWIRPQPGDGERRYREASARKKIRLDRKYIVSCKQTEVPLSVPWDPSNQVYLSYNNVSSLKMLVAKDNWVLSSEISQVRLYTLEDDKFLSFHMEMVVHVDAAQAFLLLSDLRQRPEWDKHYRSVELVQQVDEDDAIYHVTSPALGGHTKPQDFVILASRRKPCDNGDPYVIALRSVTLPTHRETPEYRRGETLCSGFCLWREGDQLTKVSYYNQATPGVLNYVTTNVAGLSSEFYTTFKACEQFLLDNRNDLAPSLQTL
Procedure: Three buffer changes were performed over the extent of the 18 h dialysis. Post-dialysis reactions were incubated with fresh C14-CoA (25 μM) for 60 min at 22° C. Ebselen (Sigma Aldrich; St. Louis, MO) was used as a (−) control.

[8] = biological target: T3, recombinant mouse Them1 (Mus musculus, UniProt Q8VHQ9); assay: Acot activity assay, mouse Them1; type: biochemical; details: in words (FIG. 6B)
T3 construct: made in house; host or cells: E. coli BL21 (DE3)
T3 sequence (Q8VHQ9 21-594): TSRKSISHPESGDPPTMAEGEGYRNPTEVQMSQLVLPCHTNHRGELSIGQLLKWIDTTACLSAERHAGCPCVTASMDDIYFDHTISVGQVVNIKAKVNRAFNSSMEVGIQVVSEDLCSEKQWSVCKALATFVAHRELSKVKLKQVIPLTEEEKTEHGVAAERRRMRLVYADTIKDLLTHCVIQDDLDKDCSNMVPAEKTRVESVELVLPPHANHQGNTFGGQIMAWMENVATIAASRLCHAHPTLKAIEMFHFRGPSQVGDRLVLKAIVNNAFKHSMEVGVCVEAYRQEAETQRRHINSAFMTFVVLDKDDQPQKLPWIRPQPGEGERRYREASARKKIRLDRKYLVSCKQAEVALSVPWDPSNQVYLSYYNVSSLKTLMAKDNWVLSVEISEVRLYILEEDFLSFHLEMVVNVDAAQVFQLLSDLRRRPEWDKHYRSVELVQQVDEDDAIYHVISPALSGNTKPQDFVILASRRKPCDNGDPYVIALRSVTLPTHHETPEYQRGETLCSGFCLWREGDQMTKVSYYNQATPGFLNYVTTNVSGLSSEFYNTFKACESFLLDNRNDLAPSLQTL
Text: (Zhang et al., 1999). Values are show in the following Table.

[9] = biological target: T4, full-length Them1 (Homo sapiens, UniProt Q8WXI4); assay: Microscale thermophoresis binding, full-length Them1; details: in words
T4 sequence (Q8WXI4 14-594 isoform Q8WXI4-2 limits assumed): T2 sequence (Q8WXI4 14-594 isoform Q8WXI4-2 limits assumed)
Procedure: as §2, §3

[10] = biological target: T5, Them1 START domain (Homo sapiens, UniProt Q8WXI4); assay: Microscale thermophoresis binding, START domain; details: in words
T5 sequence (Q8WXI4 339-594 isoform Q8WXI4-2): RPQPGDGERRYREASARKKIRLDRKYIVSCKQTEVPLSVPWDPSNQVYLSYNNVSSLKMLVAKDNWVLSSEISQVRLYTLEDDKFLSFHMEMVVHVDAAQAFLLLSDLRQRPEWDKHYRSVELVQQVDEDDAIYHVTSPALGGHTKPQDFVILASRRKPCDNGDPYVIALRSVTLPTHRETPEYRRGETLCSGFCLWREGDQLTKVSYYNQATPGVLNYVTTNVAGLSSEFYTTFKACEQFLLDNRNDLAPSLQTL
Text: A synthetic gene encoding the START domain was cloned into a pNIC28-Bsa4 bacterial expression vector (Novagen, EMD Biosciences; Madison, WI), which introduced an in-frame N-terminal His6 fusion containing a tobacco etch virus protease cleavage site to facilitate tag removal. The pNIC28-Bsa4-START domain plasmid was co-transformed into E. coli BL21 (DE3) (New England Biolabs; Ipswich, MA) competent cells with a pG-Tf2 vector (encoding groES-gorEL-tig chaperones) and then grown to an A600 of 0.5-0.7 in terrific broth. Under conditions of shaking (250 rpm) at 18° C., chaperones were induced by the addition of 5 ng/mL tetracycline HCl for 60 min followed by START domain induction upon the addition of 0.5 mM isoproyl β-D-thiogalactoside for ˜18 h. The bacteria were harvested by centrifugation, and then lysed by sonication with 20 mM Tris-Cl (pH 7.4), 500 mM NaCl, 25 mM imidazole, 5% glycerol, lysozyme, Dnase A, 0.1% Triton X-100, 5 mM β-mercaptoethanol and 100 μM phenylmethylsulfonyl fluoride. Following centrifugation of the bacterial lysate, recombinant START was purified by FPLC using a His affinity column (HisTrap HP column; GE Healthcare; Waukesha, WI). The soluble fraction containing recombinant START was applied to the column after equilibration with 20 mM Tris-Cl (pH 7.4), 500 mM NaCl, 25 mM imidazole and 5% glycerol, and then washed with the same buffer. Recombinant START was eluted from the HisTrap HP column using 20 mM Tris-Cl (pH 7.4), 500 mM NaCl, 500 mM imidazole and 5% glycerol followed by tobacco etch virus protease-mediated His-tag cleavage at 4° C. overnight with simultaneous dialysis into 20 mM Tris-Cl (pH 7.4), 500 mM NaCl and 5% glycerol. Recombinant START was further purified using a Superdex column (HiLoad 16/60 Superdex 75 column; GE Healthcare; Waukesha, WI) in 20 mM Tris-Cl (pH 7.4), 500 mM NaCl and 5% glycerol. Assessment of purity, protein concentration and storage of single use aliquots of recombinant START were performed as described above for recombinant Them1.
Reaction labeling recombinant full-length Them1, Them1l-ΔSTART, START or Acot12 with Monolith RED-Tris-NTA (NanoTemper Technologies; San Francisco, CA) were performed according to the manufacturer's instructions in buffer containing PBS plus 0.5% Tween-20 for 60 min at 22° C. with a molar dye: protein ratio=1:1. […] Working concentrations of compounds were prepared by diluting in microscale thermophoresis buffer. […] Fluorescence was measured using a Monolith NT.115 instrument (NanoTemper Technologies; San Francisco, CA) at 22° C. with instrument parameters adjusted to 40% LED power and medium microscale thermophoresis power. […]

[11] = biological target: T4, full-length Them1; assay: biochemical
Procedure: as §2, §3

Row | Compound | OCR following palmitate stimulation in L-Them1Tg hepatocytes [1] | OCR following palmitate stimulation in Them1−/− hepatocytes [1] | glucose production in L-Them1Tg hepatocytes [2] | CC50 at 48 h [3] [µM] | binding to Them1-ΔSTART [4] | Kd [4] [µM] | Kd [5] [µM] | OCR in A-Them1Tg brown adipocytes, reversal of Them1 suppression ([6]; NE-stimulated, compounds at 10 μM (FIGS. 3B-C, 8B-C)) | Them1 activity after overnight dialysis (reversibility of inhibition) [7] | inhibition of mouse Them1 activity compared to human Them1 [8] | Kd / binding affinity to full-length Them1 compared to the parent U1 compound [9] | binding affinity to the START domain compared to the parent U1 compound [10] | Kd [11] [µM] | OCR in A-Them1Tg brown adipocytes, reversal of Them1 suppression ([6]; compounds at their in vitro IC50 concentrations, 30 min, NE 1 μM, vs wild type (DMSO))
1 | CCOC(=O)N1CCN(C(c2cccs2)c2c(C)[nH]c3ccccc23)CC1 (stereo not drawn) [Compound U1, ethyl 4-((2-methyl-1H-indol-3-yl)(thiophen-2-yl)methyl)piperazine-1-carboxylate] | reversed this suppressive effect of Them1 | did not increase OCR values | reduced | > 125 | lacked the capacity to bind; also recorded: lacked binding | > 125 | > 125 | reversed the suppressive effects of Them1 activity | restored Them1 activity | comparable potencies | – | – | – | –
2 | Cc1[nH]c2ccccc2c1C(c1cccs1)N1CCN(C(=O)C(C)C)CC1 (stereo not drawn) [Compound U11, 2-methyl-1-(4-((2-methyl-1H-indol-3-yl)(thiophen-2-yl)methyl)piperazin-1-yl)propan-1-one] | – | – | – | > 125 | did not bind | > 125 | > 125 | – | – | – | tighter | tighter | 0.87 | reversed the suppressive effects of Them1 on values of OCR
